Measured values as given in patent US20150231149A1, “SPERM FUNCTION/ACTIVITY” (University of Dundee, priority 2011, published 2015).
Where a name gives a salt, the structure may show the parent alone.

What was measured:
human sperm motility = test: Sperm motility assessment by CASA after PDEi treatment (screening of 43 PDEi); type: cell-based; settings: for Effect on Sperm Motility: Mild / Effect on Sperm Motility: Strong: X or (X) marks the class, PDEi tested blinded at 1, 10 and 100 μM, 20 min at 37° C., CASA
Description: Almost all phosphodiesterase inhibitors (PDEi) were purchased from Tocris Bioscience (Bristol, UK) and the other inhibitors from Sigma-Aldrich (Dorset, UK) or Santa Cruz Biotechnology (Heidelberg, Germany) by the Drug Discovery Unit (DDU) at the College Life Sciences (University of Dundee, UK) as shown in Table 1. The DDU coded the PDEi upon arrival and the coded samples were tested for sperm function with a primary focus on sperm motility. All 43 PDEi were analyzed blinded with three independent times for quantitative sperm motility using three different final concentrations (1, 10 and 100 μM).
All chemicals were purchased from Sigma-Aldrich. Two different media were used 1-medium not supporting sperm capacitation NCM: 1.8 mM CaCl2, 5.4 mM KCl, 0.8 mM MgSO4.7H2O, 116.3 mM NaCl, 1.0 mM NaH2PO4, 5.55 mM D-glucose, 2.73 mM sodium pyruvate, 41.75 mM sodium lactate, 25 mM HEPES and 2-supporting capacitation CM: 1.8 mM CaCl2, 5.4 mM KCl, 0.8 mM MgSO4.7H2O, 116.3 mM NaCl, 1.0 mM NaH2PO4, 5.55 mM D-glucose, 2.73 mM sodium pyruvate, 25 mM sodium lactate, 26 mM sodium bicarbonate. Semen samples were obtained from healthy donors (normozoospermic) and samples were produced by masturbation into a sterile plastic container after 2-3 days of sexual abstinence. Two different sperm populations were isolated from the semen using a 40-80% discontinuous density gradient procedure. Briefly, 1 ml of semen was loaded after 30 min of liquefaction at 37° C. on the top of a colloidal silica suspension (Pure Sperm™, Nidacon, Mölndal, Sweden) made of 80% and 40% layered (2 ml each). The density gradient was centrifuged at 300×g for 20 min at room temperature. The motile population was found at the bottom of the 80% fraction and the poor motility population was recovered at the interface of 40-80%, respectively called 80% and 40% fraction. Both fractions were washed using a NCM, cells were isolated by a centrifugation for 5 min at 500×g and the sperm pellet was rediluted using a NCM or CM at ˜20-25×10^6 cells/ml. Sperm cells from 3-4 different donors were pooled together after sperm preparation in order to obtain enough cells to screen 4-5 PDEi at the same time and additionally to reduced the variability. The first screening was performed with a NCM because it is the conditions normally used in clinic for intrauterine insemination (IUI). Accordingly, NCM is recommended to prevent capacitation before IUI (Björndahl et al., 2010)
Following isolation, sperm were mixed with DMSO (vehicle; 1% final concentration) or PDEi [all inhibitors were reconstituted into 1% DMSO]. Sperm cells were incubated for 20 min at 37° C. and the sperm motility was evaluated by using a Computer-Assisted-Sperm-Analysis (CASA, Ceros system [version 12]; Hamilton Thorne, Beverly, Mass.) and 4 chamber slides […] (Vitrolife, Sweden). Sperm motility was evaluated from 4 samples per treatment and at least 2,000 sperm cells were analyzed in total (see below). The setting of the CASA used was that established by the manufacturer for human spermatozoa.

[1] = tested on: poor sperm motility population; test: Sperm penetration assay in 1% methyl cellulose; type: cell-based, human; settings: PDEi 100 μM, 20 minutes, scored at 1 cm distance, n=6 (FIG. 4)
Description: Methyl cellulose (1% concentration) was used to mimic cervical mucus viscosity and act as a sperm function test (Ivic et al., 2002). Sperm cells were previously treated with PDEi as described above. Glass tubes (5 cm×0.8 cm×2 mm; Vitrocom, NJ, USA) were loaded with methyl cellulose by capillary action (4,000 Sigma M-) prepared in NCM and one extremity was sealed with Cristaseal™ (Hawksley, Sussex, UK). The tubes was incubated with the sperm cells at 37° C. for 1 h 15 min, then the other extremity of the tube was sealed and the number of sperm cells scored at 1 cm and 2 cm using the CASA equipped with a 20× objective magnification. The microscope was adjusted to get the right focus manually at all planes to get the sum of the sperm migrated at this distance. The results are expressed as a penetration index calculated as the number of spermatozoa observed at the site of counting with treatment/the number of spermatozoa without treatment. The speed of sperm population at the migration distance was also analyzed.

SMILES | Effect on Sperm Motility: Mild (human sperm motility) | enhancement of sperm motility in a viscous solution (sperm penetration assay) [1] | other results
Cl.Cl.Nc1nc(-c2ccc(Cl)c(Cl)c2)c(-c2ccncc2)s1 [CGH 2466 dihydrochloride] | (X) | – | –
CCC1C(C)=NN=C(c2ccc(OC)c(OC)c2)c2cc(OC)c(OC)cc21 (centres unmarked) [Tofisopam, 1-(3,4-dimethoxyphenyl)-5-ethyl-7,8-dimethoxy-4-methyl-5H-2,3-benzodiazepine] | – | best PDEI's to enhance sperm motility in a viscous solution | effect upon sperm motility (human sperm motility): greater than expected effect upon sperm motility
CC(C)C(=O)c1c(C(C)C)nn2ccccc12 [Ibudilast, 2-methyl-1-(2-propan-2-ylpyrazolo[1,5-a]pyridin-3-yl)propan-1-one] | – | best PDEI's to enhance sperm motility in a viscous solution | –
CCCCCC[C@@H]([C@@H](C)O)n1cnc2c(N)ncnc21.Cl [EHNA hydrochloride] | (X) | – | –
CCOC(=O)C1=C[C@]2(CC)CCCN3CCc4c(n1c1ccccc41)[C@@H]32 [Vinpocetine] | (X) | – | –
COc1cc2c(cc1OC)-c1c/c(=N\c3c(C)cc(C)cc3C)n(C)c(=O)n1CC2 [Trequinsin hydrochloride] | – | – | Effect on Sperm Motility: Strong (human sperm motility): (X)
Cc1ccc([N+](=O)[O-])cc1S(=O)(=O)N(C)C [BRL 50481] | (X) | – | –
COc1ccc(Cc2nccc3cc(OC)c(OC)cc23)cc1OC [Papaverine] | – | best PDEI's to enhance sperm motility in a viscous solution | effect upon sperm motility (human sperm motility): greater than expected effect upon sperm motility
CN(C(=O)CCCOc1ccc2[nH]c(=O)ccc2c1)C1CCCCC1 [Cilostamide] | – | – | Effect on Sperm Motility: Strong (human sperm motility): (X)
